Results on one molecule are retold here after patent US20140213576A1, “NOVEL COMPOUND USEFUL FOR THE TREATMENT OF DEGENERATIVE AND INFLAMMATORY DISEASES” (GALAPAGOS NV, priority 2013, published 2014).

Where “and” joins values, the source holds several entries; their conditions need not be identical. Equal values may be shown once.

One assay concerns the target T1, JAK3 (Homo sapiens, UniProt P52333).
T1 construct: purchased Carna Biosciences 09CBS-0625B
T1 sequence (P52333 1-1124): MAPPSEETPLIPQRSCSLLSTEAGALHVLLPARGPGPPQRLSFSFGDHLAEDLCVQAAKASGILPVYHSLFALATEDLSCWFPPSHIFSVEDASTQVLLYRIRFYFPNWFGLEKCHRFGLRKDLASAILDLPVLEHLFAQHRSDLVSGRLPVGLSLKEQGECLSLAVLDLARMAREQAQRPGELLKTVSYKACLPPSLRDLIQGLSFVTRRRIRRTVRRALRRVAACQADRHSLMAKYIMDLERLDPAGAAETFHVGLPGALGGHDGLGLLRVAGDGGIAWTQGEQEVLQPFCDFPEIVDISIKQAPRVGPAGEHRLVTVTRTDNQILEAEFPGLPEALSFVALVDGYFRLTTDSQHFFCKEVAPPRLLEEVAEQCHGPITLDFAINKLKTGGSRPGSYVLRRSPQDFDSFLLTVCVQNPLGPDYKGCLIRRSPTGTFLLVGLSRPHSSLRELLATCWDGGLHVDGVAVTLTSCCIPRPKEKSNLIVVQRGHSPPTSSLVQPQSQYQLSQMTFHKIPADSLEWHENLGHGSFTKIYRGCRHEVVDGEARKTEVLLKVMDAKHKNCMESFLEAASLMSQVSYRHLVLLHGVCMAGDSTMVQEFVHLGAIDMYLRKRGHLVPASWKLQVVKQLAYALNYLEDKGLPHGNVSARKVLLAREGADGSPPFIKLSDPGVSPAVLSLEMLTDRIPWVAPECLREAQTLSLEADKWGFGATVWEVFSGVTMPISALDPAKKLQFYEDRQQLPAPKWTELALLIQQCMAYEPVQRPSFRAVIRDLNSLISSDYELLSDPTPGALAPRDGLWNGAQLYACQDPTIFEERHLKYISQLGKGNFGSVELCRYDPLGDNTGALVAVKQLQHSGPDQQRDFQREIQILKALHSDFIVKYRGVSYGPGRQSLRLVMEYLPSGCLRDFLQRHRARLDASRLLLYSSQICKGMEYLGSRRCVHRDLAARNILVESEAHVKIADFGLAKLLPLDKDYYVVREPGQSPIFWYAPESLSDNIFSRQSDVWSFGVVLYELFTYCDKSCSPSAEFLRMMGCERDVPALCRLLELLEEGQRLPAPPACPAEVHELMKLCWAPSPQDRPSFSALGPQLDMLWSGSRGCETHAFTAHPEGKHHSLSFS
Put plainly: JAK3 Ki determination assay. Format: biochemical. Particulars: Lineweaver-Burk, varying ATP, polyGT substrate; read-out: Ki against JAK3. The method, then: For the determination of Ki, different amounts of compound were mixed with the enzyme and the enzymatic reaction was followed as a function of ATP concentration. The Ki was determined by means of double reciprocal plotting of Km vs compound concentration (Lineweaver-Burk plot). JAK3 (Carna Biosciences, 09CBS-0625B) was used at a final concentration of 10 ng/mL. The substrate was Poly(Glu,Tyr)sodium salt (4:1), MW 20 000-50 000 (Sigma, P0275) The reaction was performed in 25 mM Tris pH 7.5, 0.01% Triton X-100, 0.5 mM EGTA, 2.5 mM DTT, 0.5 mM Na3VO4, 5 mM b-glycerolphosphate, 10 mM MgCl2 with varying concentrations of ATP and compound and stopped by addition of 150 mM phosphoric acid. Measurement of incorporated phosphate into the substrate polyGT was done by loading the samples on a filter plate (using a harvester, Perkin Elmer) and subsequent washing. Incorporated ^33P in polyGT was measured in a Topcount scintillation counter after addition of scintillation liquid to the filter plates (Perkin Elmer).

In assay [1] the target is T2, Recombinant human JAK3 catalytic domain (Homo sapiens, UniProt P52333).
T2 construct: Recombinant human JAK3 catalytic domain (amino acids 781-1124; catalog number PV3855); purchased Invitrogen PV3855
Put plainly: JAK3 inhibition assay (polyGT substrate). Format: biochemical. Particulars: 1 μM ATP, individual determinations, read-out: IC50 against JAK3. The method, then: Recombinant human JAK3 catalytic domain (amino acids 781-1124; catalog number PV3855) was purchased from Invitrogen. 0.5 ng JAK3 protein was incubated with 2.5 μg polyGT substrate (Sigma catalog number P0275) in kinase reaction buffer (25 mM Tris pH 7.5, 0.5 mM EGTA, 10 mM MgCl2, 2.5 mM DTT, 0.5 mM Na3VO4, 5 mM b-glycerolphosphate, 0.01% Triton X-100, 1 μM non-radioactive ATP, 0.25 μCi ^33P-gamma-ATP (GE Healthcare, catalog number AH9968) final concentrations) with or without 5 μL containing test compound or vehicle (DMSO, 1% final concentration), in a total volume of 25 μL, in a polypropylene 96-well plate (Greiner, V-bottom). […]
6005177) using a cell harvester (Perkin Elmer). […] 40 μL/well of Microscint-20 was added, the top of the plates was sealed and readout was performed using the Topcount (Perkin Elmer). Kinase activity was calculated by subtracting counts per min (cpm) obtained in the presence of a positive control inhibitor (10 μM staurosporine) from cpm obtained in the presence of vehicle. The ability of a test compound to inhibit this activity was determined as:
Percentage inhibition=((cpm determined for sample with test compound present−cpm determined for sample with positive control inhibitor) divided by (cpm determined in the presence of vehicle−cpm determined for sample with positive control inhibitor))*100. […]

For orientation: Ki means a dissociation constant, usually derived from enzyme kinetics or from competition with a known ligand. The IC50 is the concentration that gives 50% inhibition. For the molecule `CCc1cc(C2CN(S(C)(=O)=O)C2)ncc1N(C)c1cc2c(cn1)ncn2C` [Compound 1, [4-Ethyl-6-(1-methanesulfonyl-azetidin-3-yl)-pyridin-3-yl]-methyl-(1-methyl-1H-imidazo[4,5-d]pyridin-6-yl)-amine], the Ki at JAK3 was 685 nM. Also, in assay [1], the IC50 is 1320 nM and 523 nM and 460 nM and 345 nM and 689 nM and 685 nM and 515 nM and 324 nM and 537 nM.
